Data on one compound can be found in US20060292254A1, “Orally and nasally administered appetite suppressant” (priority 2005, published 2006).

The test system of this assay is food intake in food deprived rats. The assay can be described thus: Effect of intranasal administration of capsaicin on food intake in food deprived rats. It is filed as in vivo, Male Sprague-Dawley rats. To be noted: intra-nasal liquid solution, 0.02-2 mg/kg of body weight, food introduced one hour after administration, consumption determined after 4, 12 and 24 hours, mush diet. The text has this: Male Sprague-Dawley rats, 150-175 g at the start of the experiments (Charles River Laboratories, Wilmington, Mass.) were housed individually in suspended wire mesh cages. Rats had ad libitum access to tap water and food (Rodent Laboratory Chow No. 5001-pellet form, Purina) on non-testing days. A mush diet, used for experiments on food-deprived animals, and composed of equal parts by weight of ground rodent chow (Purina, #5001-meal form) and a 4% nutrient agar solution (Teklad Diets) was presented to the animals in glass jars. This agar-based chow diet allows for a more accurate measurement of food intake, and has been shown previously to be sufficient for maintaining normal rat growth.
Capsaicin was prepared as a liquid solution and administered intra-nasally, The drug dosage ranged from 0.02-2 mg/kg of body weight. Control animals were administered placebo formulation without capsaicin. One hour after administration, pre-weighed food jars were introduced into the cage and a sheet of clean white paper placed under each cage to catch any spillage. The amount of food consumed after 4, 12 and 24 hours was determined to the nearest 0.01 g.

Consider `COc1cc(CNC(=O)CCCC/C=C/C(C)C)ccc1O` [Capsaicin], for which the “amount of food consumed versus placebo” value is on record as “significantly less food”.
